# Experimental data published in patent US20050079180A1, “Manipulatin of oocyte maturation and male germ cell survival” (priority 2003, published 2005).
# Where a SMILES comes first, the peptide text is derived from it. Where no end group is shown, it is not given here. [ ]: non-standard residue; d: D form. d(hArg(Et2)) = CCN=C(NCC)NCCCC[C@@H](N)C(=O)O; hArg(Et2) = CCN=C(NCC)NCCCC[C@H](N)C(=O)O; dPhe(4-Cl) = N[C@H](Cc1ccc(Cl)cc1)C(=O)O; d2Nal = N[C@H](Cc1ccc2ccccc2c1)C(=O)O; d3Pal = N[C@H](Cc1cccnc1)C(=O)O
# What was measured:
# testis = assay type: in vivo, rat
# Protocol: C) Analysis of apoptotic DNA fragmentation in testes using 3′-end DNA labeling with the terminal transferase, followed by gel fractionation and autoradiography. D) In situ staining of apoptotic DNA fragmentation in seminiferous tubules using the TUNNEL method.
# (§1) Male Sprague-Dawley rats at 28 days of age were treated subcutaneously with GnRH antagonist (250 μg/kg/day) to suppress pituitary gonadotropin secretion. […] Animals were killed 5 days after initial treatment and organ weight determined. Testes were stored at −70° C. before RNA or DNA extraction or fixed in Bouin's solution for in situ labeling of DNA ends.
# male germ cells = assay: Gonadotropin deprivation model: testis apoptotic DNA fragmentation; assay type: in vivo, rat
# Protocol: as §1
# DNA from whole testis was isolated and quantitated with spectrophotometry at 260 nm. Aliquots of DNA (500 ng) from each sample were labeled at 3′-ends with 32P-dideoxy-ATP (3,000 Ci/mmol: Amersham. Arlington Heights, Ill.) using terminal transferase (25 U/sample; Boehringey-Mannheim, Indianapolis, Ind.) as described. Labeled samples were fractionated through 2% agarose gels. After electrophoresis, gels were dried for 2 h in a slab-gel dryer without heat and exposed to Kodak X-OMAT AR films (Eastman Kodak Co., Rochester, N.Y.) at −70 C. After autoradiography, portions of each lane corresponding to DNA less than 10 kilobases (kb) were isolated and counted in a y-spectrometer for estimating the degree of intenucleosomal DNA fragmentation. For in situ DNA 3′-end labeling, fixed testicular tissues were embedded in paraffin, and cut in 3 μm sections. To detect apoptotic DNA fragmentation, the in situ cell death detection kit (Roche Diagnostics, Mannheim, Germany) was used according to manufacturer's instruction and sections counterstained with hematoxylin.
# INSL3 message = assay: Gonadotropin deprivation model: testis INSL3 mRNA (Northern blot); assay type: in vivo, rat; settings: FIG. 4B
# Protocol: as §1
# cumulus-enclosed oocytes = assay: Germinal vesicle breakdown in cultured cumulus-enclosed oocytes; assay type: cell-based, rat; settings: for oocyte maturation (germinal vesicle breakdown): cultured cumulus-enclosed oocytes from preovulatory follicles, FIG. 1D
# Protocol: (§2) Cumulus-enclosed oocytes (CEO) were collected and cultured as described (Vaknin et al. PMID: 11133687). Briefly, female rats at 26 d of age were injected with 15 IU pregnant mare serum gonadotropin (PMSG). After 48-50 h, ovaries were dissected in Leivovitz's L-15 medium (Invitrogen Corp., Carlsbad, Calif.) supplemented with 5% fetal bovine serum and 100 μg/ml of penicillin and streptomycin. The CEOs were collected by puncturing the largest ovarian follicles in the L15 medium containing 0.25 mM of MIX within 20 min, washed twice in L15 medium without MIX and transfer to test medium. The CEO were cultured with or without different doses of rat INSL3 in L15 medium without both FBS and IBMX. For controls, the CEOs were cultured in L15 medium with IBMX. At the end of culture, the occurrence of germinal vesicle breakdown (GVBD) in oocyte was examined after removing cumulus cells surrounding CEO by a small-bore pipette under Hoffman modulation contrast microscopy (Nikon Inc., Tokyo, Japan). For preovulatory follicles, follicles were excised from the ovary after PMSG treatment for 48 h. The follicles, 20-30 per vial, were cultured with or without different doses of rat INSL3 or LH in L15 medium without FBS. The vials were flushed at the start of the culture with O2/N2 (1/1) and cultured at 37C with gently shaking. After culture, individual CEO was dissected from each follicle to examine the occurrence of GVBD. For cAMP determination, 20 to 30 denuded oocytes were cultured with or without rat INSL3 (10 nM) in L15 medium containing 10 μM of cilostamide with or without 50 μM of forskolin. After treatment, oocytes were collected in 2 μl of medium, frozen and thawed to break the cells before acetylation of samples with triethylamine and acetic anhydride (3:1). Intra-oocyte cyclic AMP levels were determined by radioimmunoassay as previously described (Davoren, Hsuch, 1985).
# [1] = test system: oocytes of preovulatory follicles; assay: In vivo oocyte maturation after intrabursal injection in PMSG-primed rats; set-up: species or system rat; settings: FIG. 3C
# Protocol: To study the effect of INSL3 on oocyte maturation in vivo, intrabursal injection was performed (Vaknin et al. PMID: 11133687). Immature PMSG-treated rats were lightly anesthetized by ether, and one of the ovaries was exteriorized through a small lumbosacral incision. Rat INSL3, dissolved in 100 μl of PBS, was injected through a 30-gauge needle threaded into the ovarian bursa via the adjoining fat pad. After injection, the ovary was replaced into the abdominal cavity, and skin was clipped. Eight hours later, CEOs were collected by puncturing the largest ovarian follicles to examine the occurrence of oocyte GVBD.
# gubernacular cells = settings: cited from earlier work
# [2] = test system: seminiferous tubular cells; assay: cAMP production by seminiferous tubular cells; assay type: cell-based, rat; settings: FIG. 2D
# Protocol: Seminiferous tubular cells were treated with different hormones or forskolin (FSK) for 12 h before cAMP determination. Some cells were also pretreated with PT before hormonal treatment (filled circles) to suppress Gi activity. B: basal.
# Seminiferous tubular cells were isolated by the method of Nagao (1989) In Vitro Cell Dev Biol 25:1088-1098, with modifications. Briefly, testes were decapsulated and incubated for 15 minutes in PBS containing 0.25% collagenase with occasional shaking. After collecting interstitial cells released from the preparation, seminiferous tubules were washed, and incubated with 0.25% trypsin to disperse tubular cells. The resulting cell suspension was filtered through 100 μm nylon mesh to remove cell aggregates and tissue debris, after which the tubular cells were collected by centrifugation.
# Total cAMP in each well was measured in triplicate with primary cultured cells by a specific radioimmunoassay as previously described by Davoren and Hsuch (1985) Biol Reprod 33:37-52. All experiments were repeated at least four times.
# recombinant LGR8 = target: T1, recombinant LGR8 (Homo sapiens, UniProt Q8WXD0); settings: 293T cells expressing recombinant LGR8; cited from earlier work
# T1 construct: expressed in transfected cells; host or cells: human 293T cells, calcium phosphate transfection
# T1 sequence (Q8WXD0 whole entry): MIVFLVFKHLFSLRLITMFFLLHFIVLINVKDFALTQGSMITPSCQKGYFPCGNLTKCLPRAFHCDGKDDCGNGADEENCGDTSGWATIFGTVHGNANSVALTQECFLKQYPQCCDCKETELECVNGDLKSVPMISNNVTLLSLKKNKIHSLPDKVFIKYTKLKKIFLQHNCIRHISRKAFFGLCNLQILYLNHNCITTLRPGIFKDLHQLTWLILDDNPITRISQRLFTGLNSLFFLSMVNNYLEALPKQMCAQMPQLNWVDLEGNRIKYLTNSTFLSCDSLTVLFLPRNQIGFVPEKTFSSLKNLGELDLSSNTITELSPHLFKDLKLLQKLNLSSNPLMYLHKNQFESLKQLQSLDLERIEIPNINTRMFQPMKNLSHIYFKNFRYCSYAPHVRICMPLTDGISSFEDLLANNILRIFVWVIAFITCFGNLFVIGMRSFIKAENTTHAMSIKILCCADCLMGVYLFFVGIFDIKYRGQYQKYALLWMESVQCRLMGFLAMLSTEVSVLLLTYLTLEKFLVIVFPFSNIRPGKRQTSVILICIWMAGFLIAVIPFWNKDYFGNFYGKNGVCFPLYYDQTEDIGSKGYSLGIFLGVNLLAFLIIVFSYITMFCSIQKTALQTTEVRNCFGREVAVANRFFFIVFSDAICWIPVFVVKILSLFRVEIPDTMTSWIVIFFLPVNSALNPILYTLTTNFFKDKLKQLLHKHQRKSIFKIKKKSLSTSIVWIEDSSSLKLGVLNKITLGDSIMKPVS
# preovulatory follicles = assay: Oocyte maturation (GVBD) in cultured intact preovulatory follicles; assay type: cell-based, rat
# Protocol: as §2, with “Briefly,” for “Cumulus-enclosed oocytes (CEO) were collected and cultured as described (Vaknin et al. PMID: 11133687). Briefly,”, “For preovulatory follicles, follicles were excised from the ovary after PMSG treatment for 48 h. The follicles, 20-30 per vial, were cultured with or without different doses of rat INSL3 or LH in L15 medium without FBS.” left out, “(3:1).” for “(3:1). Intra-oocyte cyclic AMP levels were determined by radioimmunoassay as previously described (Davoren, Hsuch, 1985).”
# oocyte = assay: Gonadotropin induction of ovulation with pertussis toxin co-treatment
molecule,measurement,setting,value
"CCN=C(NCC)NCCCC[C@H](NC(=O)[C@H](CC(C)C)NC(=O)[C@@H](CCCCNC(=NCC)NCC)NC(=O)[C@H](Cc1ccc(O)cc1)NC(=O)[C@H](CO)NC(=O)[C@@H](Cc1cccnc1)NC(=O)[C@@H](Cc1ccc(Cl)cc1)NC(=O)[C@@H](Cc1ccc2ccccc2c1)NC(C)=O)C(=O)N1CCC[C@H]1C(=O)N[C@H](C)C(N)=O [GnRH antagonist, ganirelix acetate] (Ac-[d2Nal][dPhe(4-Cl)][d3Pal]SY[d(hArg(Et2))]L[hArg(Et2)]P[dA]-NH2)",testis weight,"testis; immature rats, GnRH antagonist alone, five days, FIG. 4A",decreased testis weight
same,weight change in kidney or heart,"testis; rat, in vivo",no weight change in kidney or heart was detected
same,in situ staining of DNA fragments in seminiferous tubules,"male germ cells; GnRH antagonist alone, FIG. 4D panel e",the majority of tubules showed labeled cells corresponding to meiotic pachytene spermatocytes and postmeiotic spermatids
same,apoptotic DNA fragmentation in testis,"male germ cells; GnRH antagonist alone, internucleosomal DNA fragmentation, FIG. 4C",increased apoptotic DNA fragmentation
same,testis INSL3 message levels,INSL3 message,decreased INSL3 message levels
"CC(C)Cn1c(=O)n(C)c(=O)c2[nH]cnc21 [MIX, reference compound]",oocyte maturation (germinal vesicle breakdown),cumulus-enclosed oocytes,completely blocked oocyte maturation
INSL3: Insulin-like hormone superfamily member with B chain and A chain; rat INSL3 chemically synthesized; ligand of LGR8 (chain 1 QPPEARAKLCGHHLVRALVRVCGGPRWSPEA; chain 2 SVATNAVHRCCLTGCTQQDLLGLCPH; ends and bridges not checked; cysteine pairing not given here),oocyte maturation (germinal vesicle breakdown in preovulatory follicles),[1]; 8 h after intrabursal injection,induced oocyte maturation
same,follicle rupture,[1]; intrabursal treatment,not follicle rupture
same,cAMP production,gubernacular cells,stimulatory effects
same,basal cAMP production,"[2]; INSL3 alone, 12 h",basal cAMP production was not affected
same,cAMP increases induced by forskolin,"[2]; INSL3 with forskolin, 12 h",prevented cAMP increases induced by forskolin in a dose-dependent manner
same,cAMP levels stimulated by FSH,[2]; co-treatment of INSL3 with FSH,did not alter cAMP levels
same,cAMP production,recombinant LGR8,stimulatory effects
same,oocyte maturation (germinal vesicle breakdown),cumulus-enclosed oocytes,further augmented oocyte maturation in a dose-dependent manner
same,time after culture at which augmentation of oocyte maturation was evident,"cumulus-enclosed oocytes; time-course, cumulus-enclosed oocytes, FIG. 1E",2 h
same,effect on testis weight decrease caused by GnRH antagonist,"testis; co-treatment with GnRH antagonist, five days, FIG. 4A",partially blocked
same,oocyte maturation,"preovulatory follicles; intact preovulatory follicles, FIG. 1F",induced oocyte maturation in a dose-dependent manner
same,apoptosis induced by GnRH antagonist (internucleosomal DNA fragmentation),"male germ cells; co-treatment with GnRH antagonist, FIG. 4C",blocked apoptosis
same,in situ staining of DNA fragments in seminiferous tubules,"male germ cells; co-treatment with GnRH antagonist, FIG. 4D panel f",blocked the apoptosis-inducing action of the GnRH antagonist
pertussis toxin,effect on the suppressive effect of INSL3 on cAMP,[2]; pertussis toxin pretreatment,suppressive effect of INSL3 was blocked
same,effect on INSL3 induction of oocyte maturation,"preovulatory follicles; pertussis toxin with INSL3, FIG. 1G",partially blocked the INSL3 induction of oocyte maturation
same,effect on LH induction of oocyte maturation,"preovulatory follicles; pertussis toxin with LH, FIG. 1G","partially blocked the LH induction of oocyte maturation at lower (50 and 100 ng/ml), but not higher, doses of LH"
same,follicle rupture,oocyte,without affecting follicle rupture
same,gonadotropin induction of oocyte maturation,oocyte,blocks the gonadotropin induction of oocyte maturation
